Literature values, collected in patent publication US20160008334A1, “Preparations for the Treatment of Sleep-Related Respiratory Disorders” (priority 2013, published 2016).

Conditions: compared with the barbiturate phenobarbital; one study (drugbank.ca DB00366)

CN(C)CCOC(C)(c1ccccc1)c1ccccn1 (stereo not shown) [doxylamine succinate]
effectiveness for use as a sedative: more effective than the barbiturate phenobarbital
